# From PMC11790914, “Chemogenomics for steroid hormone receptors (NR3)” (Communications Chemistry, 2025)
# Values joined by “and” are separate entries in the source; they are usually repeats but may differ in a detail not shown here. Equal entries are not always repeated. Where two headings read alike, the source gives them in different places.
# Key:
# HEK293T cells [1] = test: Cytotoxicity: necrosis induction (red fluorescent dye for permeable plasma membranes); format: cell-based; conditions: 1 µM, 24 h, necrotic cell count normalized to 0.1% DMSO, single replicates;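 also: compounds applied in DMEM high glucose with 0.1% FCS and 0.1% DMSO, necrotic HEK293T cells counted by red staining of cells whose plasma membranes had become permeable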
# Gal4-VP16 = format: cell-based; conditions: 1 µM; vs. DMSO ctrl; single replicates n=1-3
# ABL1 = target: T1, ABL1 (Homo sapiens, UniProt P00519); test: Liability panel screening by DSF: ABL1; format: binding; conditions: read-out: Mean ΔTM ABL1
# T1 construct: made in house
# T1 sequence (P00519 whole entry, species assumed): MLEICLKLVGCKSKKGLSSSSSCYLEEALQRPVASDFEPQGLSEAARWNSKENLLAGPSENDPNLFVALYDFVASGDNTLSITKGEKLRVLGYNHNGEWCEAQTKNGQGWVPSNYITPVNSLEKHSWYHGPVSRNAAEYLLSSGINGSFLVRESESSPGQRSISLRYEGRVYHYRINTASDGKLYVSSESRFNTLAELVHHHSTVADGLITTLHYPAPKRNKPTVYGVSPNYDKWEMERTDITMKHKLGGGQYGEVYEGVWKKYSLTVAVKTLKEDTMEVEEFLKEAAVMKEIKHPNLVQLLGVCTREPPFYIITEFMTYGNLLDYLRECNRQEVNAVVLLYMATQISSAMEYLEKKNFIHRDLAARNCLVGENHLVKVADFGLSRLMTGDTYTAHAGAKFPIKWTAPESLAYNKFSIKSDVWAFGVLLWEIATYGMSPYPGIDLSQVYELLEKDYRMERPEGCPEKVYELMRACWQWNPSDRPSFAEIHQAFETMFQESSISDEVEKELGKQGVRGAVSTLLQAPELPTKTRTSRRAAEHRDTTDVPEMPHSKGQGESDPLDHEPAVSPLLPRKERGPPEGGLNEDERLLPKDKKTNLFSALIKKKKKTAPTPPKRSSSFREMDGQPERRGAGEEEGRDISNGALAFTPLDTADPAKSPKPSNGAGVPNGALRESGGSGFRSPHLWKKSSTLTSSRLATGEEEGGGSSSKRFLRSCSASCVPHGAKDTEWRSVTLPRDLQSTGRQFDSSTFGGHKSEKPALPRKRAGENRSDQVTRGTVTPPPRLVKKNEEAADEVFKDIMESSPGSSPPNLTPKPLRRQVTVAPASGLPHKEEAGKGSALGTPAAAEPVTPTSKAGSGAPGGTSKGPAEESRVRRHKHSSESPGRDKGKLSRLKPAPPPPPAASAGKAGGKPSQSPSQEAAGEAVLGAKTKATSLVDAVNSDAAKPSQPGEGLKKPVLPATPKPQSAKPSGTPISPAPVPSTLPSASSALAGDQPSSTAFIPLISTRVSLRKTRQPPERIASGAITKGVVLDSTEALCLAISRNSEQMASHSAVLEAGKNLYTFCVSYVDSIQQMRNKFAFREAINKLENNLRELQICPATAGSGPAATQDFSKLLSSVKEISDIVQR
# Outline: (§1)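 Recombinant protein at 2 µM in 10 mM HEPES pH 7.5 with 500 mM NaCl was mixed with SYPRO Orange (1:1000) and heated at 3 °C/min up to 85 °C. Tm was taken as the Boltzmann-fit inflection point. Shifts are ∆Tm in K from technical duplicates.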
# AURKA = target: T2, AURKA (Homo sapiens, UniProt O14965); test: Liability panel screening by DSF: AURKA; format: binding; conditions: read-out: Mean ΔTM AURKA
# T2 construct: made in house
# T2 sequence (O14965 1-403): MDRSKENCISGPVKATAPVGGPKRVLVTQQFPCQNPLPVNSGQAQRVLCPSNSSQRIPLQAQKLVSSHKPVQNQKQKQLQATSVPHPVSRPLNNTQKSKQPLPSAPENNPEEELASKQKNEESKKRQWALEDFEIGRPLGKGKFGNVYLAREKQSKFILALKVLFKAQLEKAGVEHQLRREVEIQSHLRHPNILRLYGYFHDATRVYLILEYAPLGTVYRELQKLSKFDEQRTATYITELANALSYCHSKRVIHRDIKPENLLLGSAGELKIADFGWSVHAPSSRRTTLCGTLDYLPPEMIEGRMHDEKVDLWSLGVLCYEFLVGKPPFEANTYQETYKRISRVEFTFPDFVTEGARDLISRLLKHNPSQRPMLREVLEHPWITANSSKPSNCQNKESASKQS
# Outline: as §1
# CDK2 = target: T3, CDK2 (Homo sapiens, UniProt P24941); test: Liability panel screening by DSF: CDK2; format: binding; conditions: read-out: Mean ΔTM CDK2
# T3 construct: made in house
# Outline: as §1
# FGFR3 = target: T4, FGFR3 (Homo sapiens, UniProt P22607); test: Liability panel screening by DSF: FGFR3; format: binding; conditions: read-out: Mean ΔTM FGFR3
# T4 construct: made in house
# T4 sequence (P22607 23-806, species assumed): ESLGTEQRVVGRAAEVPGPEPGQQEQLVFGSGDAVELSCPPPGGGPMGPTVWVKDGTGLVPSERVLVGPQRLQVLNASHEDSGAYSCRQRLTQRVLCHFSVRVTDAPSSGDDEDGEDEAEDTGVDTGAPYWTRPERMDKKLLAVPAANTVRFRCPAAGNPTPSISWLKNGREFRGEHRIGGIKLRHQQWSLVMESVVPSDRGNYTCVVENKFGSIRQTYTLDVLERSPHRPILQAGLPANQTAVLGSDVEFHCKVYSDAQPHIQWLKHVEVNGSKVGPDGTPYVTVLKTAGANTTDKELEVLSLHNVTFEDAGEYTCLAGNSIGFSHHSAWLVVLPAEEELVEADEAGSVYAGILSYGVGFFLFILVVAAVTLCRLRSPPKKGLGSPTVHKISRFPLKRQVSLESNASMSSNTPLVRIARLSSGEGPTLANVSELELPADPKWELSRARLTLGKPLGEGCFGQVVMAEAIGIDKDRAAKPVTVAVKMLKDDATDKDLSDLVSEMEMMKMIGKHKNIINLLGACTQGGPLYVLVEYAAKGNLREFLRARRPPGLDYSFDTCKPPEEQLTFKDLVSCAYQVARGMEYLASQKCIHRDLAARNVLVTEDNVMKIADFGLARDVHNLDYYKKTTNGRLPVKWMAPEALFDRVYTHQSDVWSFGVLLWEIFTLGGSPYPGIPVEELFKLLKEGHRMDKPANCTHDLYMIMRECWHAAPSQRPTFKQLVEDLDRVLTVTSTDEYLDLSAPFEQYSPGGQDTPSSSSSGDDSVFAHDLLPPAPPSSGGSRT
# Outline: as §1
# GSK3B = target: T5, GSK3B (Homo sapiens, UniProt P49841); test: Liability panel screening by DSF: GSK3B; format: binding; conditions: read-out: Mean ΔTM GSK3B
# T5 construct: made in house
# T5 sequence (P49841 whole entry, species assumed): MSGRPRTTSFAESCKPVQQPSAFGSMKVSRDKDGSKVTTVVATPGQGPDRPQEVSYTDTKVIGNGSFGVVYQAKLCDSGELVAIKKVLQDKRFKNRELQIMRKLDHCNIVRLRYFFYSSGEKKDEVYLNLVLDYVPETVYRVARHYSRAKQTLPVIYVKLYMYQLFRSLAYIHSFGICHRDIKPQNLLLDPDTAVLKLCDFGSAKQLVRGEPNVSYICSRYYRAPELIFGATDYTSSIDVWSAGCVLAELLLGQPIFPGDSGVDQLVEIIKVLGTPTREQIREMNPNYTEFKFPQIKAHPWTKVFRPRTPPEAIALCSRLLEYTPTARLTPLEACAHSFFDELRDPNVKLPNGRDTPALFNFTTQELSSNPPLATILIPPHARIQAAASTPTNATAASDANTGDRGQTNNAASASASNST
# BRD4 = target: T6, BRD4 (Homo sapiens, UniProt O60885); test: Liability panel screening by DSF: BRD4; format: binding; conditions: read-out: Mean ΔTM BRD4
# T6 construct: This panel comprised ten highly ligandable kinases and bromodomains; made in house
# Outline: as §1
# BRPF1 = target: T7, BRPF1 (Homo sapiens, UniProt P55201); test: Liability panel screening by DSF: BRPF1; format: binding; conditions: read-out: Mean ΔTM BRPF1
# T7 construct: This panel comprised ten highly ligandable kinases and bromodomains; made in house
# T7 sequence (P55201 628-732 limits assumed): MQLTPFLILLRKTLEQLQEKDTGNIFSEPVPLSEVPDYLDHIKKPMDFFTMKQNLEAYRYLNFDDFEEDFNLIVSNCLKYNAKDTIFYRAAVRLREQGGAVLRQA
# Outline: as §1
# CSNK1D = target: T8, CSNK1D (Homo sapiens, UniProt P48730); test: Liability panel screening by DSF: CSNK1D; format: binding; conditions: read-out: Mean ΔTM CSNK1D
# T8 construct: made in house
# T8 sequence (P48730 whole entry, species assumed): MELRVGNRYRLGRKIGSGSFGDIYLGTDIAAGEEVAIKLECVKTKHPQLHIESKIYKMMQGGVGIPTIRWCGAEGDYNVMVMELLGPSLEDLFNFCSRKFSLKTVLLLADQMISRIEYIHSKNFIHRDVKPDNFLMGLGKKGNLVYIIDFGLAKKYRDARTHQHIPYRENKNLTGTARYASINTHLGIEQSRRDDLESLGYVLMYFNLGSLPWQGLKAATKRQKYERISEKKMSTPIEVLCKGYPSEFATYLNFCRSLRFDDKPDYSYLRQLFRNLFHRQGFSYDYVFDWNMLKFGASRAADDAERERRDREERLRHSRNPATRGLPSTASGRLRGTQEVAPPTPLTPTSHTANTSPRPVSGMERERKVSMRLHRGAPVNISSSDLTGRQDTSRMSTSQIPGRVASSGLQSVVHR
# Outline: as §1
# MAPK1 = target: T9, MAPK1 (Homo sapiens, UniProt P28482); test: Liability panel screening by DSF: MAPK1; format: binding; conditions: read-out: Mean ΔTM MAPK1
# T9 construct: made in house
# T9 sequence (P28482 whole entry, species assumed): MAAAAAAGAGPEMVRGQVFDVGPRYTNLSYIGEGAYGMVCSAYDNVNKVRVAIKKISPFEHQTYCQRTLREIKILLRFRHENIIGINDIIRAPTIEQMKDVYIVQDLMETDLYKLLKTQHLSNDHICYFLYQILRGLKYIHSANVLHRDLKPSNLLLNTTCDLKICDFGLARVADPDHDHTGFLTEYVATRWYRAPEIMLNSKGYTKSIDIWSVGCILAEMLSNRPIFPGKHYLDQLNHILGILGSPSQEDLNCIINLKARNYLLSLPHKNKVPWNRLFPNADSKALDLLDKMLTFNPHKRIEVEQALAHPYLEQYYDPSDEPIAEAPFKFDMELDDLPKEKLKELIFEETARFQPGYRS
# Outline: as §1
# TRIM24 = target: T10, TRIM24 (Homo sapiens, UniProt O15164); test: Liability panel screening by DSF: TRIM24; format: binding; conditions: read-out: Mean ΔTM TRIM24
# T10 construct: This panel comprised ten highly ligandable kinases and bromodomains; made in house
# T10 sequence (O15164 899-1004 limits assumed): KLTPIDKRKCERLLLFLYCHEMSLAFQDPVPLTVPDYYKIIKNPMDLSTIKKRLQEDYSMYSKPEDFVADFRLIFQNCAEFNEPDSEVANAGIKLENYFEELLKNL
# Outline: as §1
# [2] = tested on: NF-κB activity in HEK293 NF-κB reporter cells; test: NF-kB activity assay (GFP reporter, ionomycin/PMA); format: cell-based; conditions: for Mean NFκB response: n=3; for NF-κB activity (inflammatory response to ionomycin/PMA): HEK293 NF-κB reporter cells, compounds at recommended concentrations, imaged over 24 h, n = 3
# Outline: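 Reporter readout: GFP-expressing cells normalized to confluence, imaged every 90 min across 24 h after ionomycin (100 ng/mL)/PMA (10 ng/mL) stimulation of HEK293 cells pre-treated 4 h with compound (0.1% DMSO); triplicate independent experiments.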
# [3] = tested on: ATF6 activity in Hela ATF6 reporter cells; test: Endoplasmic reticulum stress assay (ATF6 Renilla luciferase reporter, tunicamycin); format: cell-based; conditions: for ATF6 activity (tunicamycin-induced endoplasmic reticulum stress): Hela ATF6 reporter cells, tunicamycin 100 ng/mL, 18 h, compounds at recommended concentrations, n = 5; for activity at 1 µM: Homo sapiens, HeLa, single replicates n=1 to n=5, read-out: ER stress [rel. ATF6 activity]
# Outline: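 ER stress was induced by 100 ng/mL tunicamycin added 4 h after compound (0.1% DMSO) to HeLa ATF6 reporter cells. After 18 h more, Renilla luciferase signal was read and expressed relative to DMSO control, n=5 biological replicates.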
# NR3A1 (ERα) = conditions: cited from earlier work
# HEK293T cells [4] = test: Cytotoxicity: metabolic activity (WST-8 / CCK-8 assay); conditions: 1 µM; HEK293T, 24 h; WST-8; normalized to 0.1% DMSO; single replicates
# HEK293T cells [5] = test: Cytotoxicity: growth-rate (change in confluence over 24 h); conditions: 1 µM, normalized to 0.1% DMSO control, single replicates (n=1...)
# HEK293T cells [6] = test: Cytotoxicity: apoptosis induction (caspase-3/7 DEVD fluorogenic DNA dye); conditions: 1 µM; HEK293T, 24 h; apoptotic cell count normalized to 0.1% DMSO; single replicates
# NR3A2 (ERβ) = conditions: cited from earlier work
SMILES,Necrosis induction [NI] (HEK293T cells [1]),"Mean NFκB response ([2]; 1 µM, 1,5 h)","Mean NFκB response ([2]; 1 µM, 4,5 h)","Mean NFκB response ([2]; 1 µM, 7,5 h)","Mean NFκB response ([2]; 1 µM, 10,5 h)","Mean NFκB response ([2]; 1 µM, 13,5 h)","Mean NFκB response ([2]; 1 µM, 16,6 h)","Mean NFκB response ([2]; 1 µM, 19,5 h)","Mean NFκB response ([2]; 1 µM, 22,5 h)","Mean NFκB response ([2]; 1 µM, 3 h)","Mean NFκB response ([2]; 1 µM, 6 h)","Mean NFκB response ([2]; 1 µM, 9 h)","Mean NFκB response ([2]; 1 µM, 12 h)","Mean NFκB response ([2]; 1 µM, 15 h)","Mean NFκB response ([2]; 1 µM, 18 h)","Mean NFκB response ([2]; 1 µM, 21 h)","Mean NFκB response ([2]; 1 µM, 24 h)",NF-κB activity (inflammatory response to ionomycin/PMA) [2],ATF6 activity (tunicamycin-induced endoplasmic reticulum stress) [3],activity at 1 µM [3] [%],also measured
COc1ccc2c(c1)OC(C)(C)C(c1ccccc1)C2c1ccc(OCCN2CCCC2)cc1 (centres unmarked) [Ormeloxifene],1.44 and 1.00 and 0.84 and 1.46,3755.51 GFP+-cells/confluence ∙ 1000,4450.99 GFP+-cells/confluence ∙ 1000,10042.81 GFP+-cells/confluence ∙ 1000,20884.44 GFP+-cells/confluence ∙ 1000,30159.52 GFP+-cells/confluence ∙ 1000,36246.87 GFP+-cells/confluence ∙ 1000,41125.44 GFP+-cells/confluence ∙ 1000,44312.79 GFP+-cells/confluence ∙ 1000,3914.66 GFP+-cells/confluence ∙ 1000,5719.43 GFP+-cells/confluence ∙ 1000,15929.12 GFP+-cells/confluence ∙ 1000,25867.46 GFP+-cells/confluence ∙ 1000,33826.67 GFP+-cells/confluence ∙ 1000,39021.43 GFP+-cells/confluence ∙ 1000,42782.99 GFP+-cells/confluence ∙ 1000,45591.11 GFP+-cells/confluence ∙ 1000,no impact on NF-κB activity,mediated resolution of the tunicamycin-induced endoplasmic reticulum stress,39,"VP16 control [fold reporter gene activity] (Gal4-VP16): 1.02 fold reporter gene activity and 1.04 fold reporter gene activity and 1.38 fold reporter gene activity; ΔTm at 20 µM (ABL1; DSF, 20 µM, n=2): -0.02 °C; ΔTm at 20 µM (AURKA; DSF, 20 µM, n=2): 0.51 °C; ΔTm at 20 µM (CDK2; DSF, 20 µM, n=2): -2.04 °C; ΔTm at 20 µM (FGFR3; DSF, 20 µM, n=2): 0.15 °C; ΔTm at 20 µM (GSK3B; DSF, 20 µM, n=2): 0 °C; ΔTm at 20 µM (BRD4; DSF, 20 µM, n=2): -3.83 °C; ΔTm at 20 µM (BRPF1; DSF, 20 µM, n=2): -2.59 °C; ΔTm at 20 µM (CSNK1D; DSF, 20 µM, n=2): -0.1 °C; ΔTm at 20 µM (MAPK1; DSF, 20 µM, n=2): -2.68 °C; ΔTm at 20 µM (TRIM24; DSF, 20 µM, n=2): -3.44 °C; EC50 (NR3A1 (ERα); (lit.), ref Supplementary Table 1, read-out: Potency [nM] EC50, NR3A1 (ERα)): 13 ± 0.4 nM; rel. activity from literature, NR3A1 (ERα): % of moxestrol (NR3A1 (ERα); of moxestrol): 25 ± 2%; Metabolic activity [MA] (HEK293T cells [4]): 1.06 and 1.01 and 0.96 and 1.00 and 1.02 and 0.99 and 1.05 (2×); Growth rate [GR] (HEK293T cells [5]): 0.58 and 1.95 and 0.92 and 1.05 and 0.91 and 0.78 and 1.00 and 2.25 and 0.88 and 10.36; Apoptosis induction [AI] (HEK293T cells [6]): 0.93 and 1.23 and 0.90 and 1.47 and 0.53 and 0.80"
"CC[C@@H]1Cc2cc(O)ccc2C2=C1c1ccc(O)cc1C[C@H]2CC [(R,R)-THC]",1.00 and 0.96 and 0.79 and 1.43,3557.96 GFP+-cells/confluence ∙ 1000,4261.58 GFP+-cells/confluence ∙ 1000,9104.56 GFP+-cells/confluence ∙ 1000,19176.29 GFP+-cells/confluence ∙ 1000,27638.90 GFP+-cells/confluence ∙ 1000,33810.34 GFP+-cells/confluence ∙ 1000,37834.35 GFP+-cells/confluence ∙ 1000,40864.97 GFP+-cells/confluence ∙ 1000,3459.65 GFP+-cells/confluence ∙ 1000,5471.05 GFP+-cells/confluence ∙ 1000,14572.22 GFP+-cells/confluence ∙ 1000,23454.30 GFP+-cells/confluence ∙ 1000,30888.37 GFP+-cells/confluence ∙ 1000,35947.21 GFP+-cells/confluence ∙ 1000,39332.93 GFP+-cells/confluence ∙ 1000,42047.68 GFP+-cells/confluence ∙ 1000,no impact on NF-κB activity,mediated resolution of the tunicamycin-induced endoplasmic reticulum stress,66,"ΔTm at 20 µM (ABL1): 5.33 °C; ΔTm at 20 µM (AURKA): 1.62 °C; ΔTm at 20 µM (CDK2): 1.76 °C; ΔTm at 20 µM (FGFR3): 0.08 °C; ΔTm at 20 µM (GSK3B): 1.59 °C; ΔTm at 20 µM (BRD4): -3.36 °C; ΔTm at 20 µM (BRPF1): -0.77 °C; ΔTm at 20 µM (CSNK1D): -0.65 °C; ΔTm at 20 µM (MAPK1): 0.61 °C; ΔTm at 20 µM (TRIM24): 0.93 °C; IC50 (NR3A2 (ERβ); (lit.), ref Supplementary Table 1, read-out: Potency [nM] IC50, NR3A2 (ERβ)): ~4 nM; rel. activity from literature, NR3A2 (ERβ): RBA to estradiol (NR3A2 (ERβ); relative binding affinity to estradiol): 25 ± 6 RBA; Metabolic activity [MA] (HEK293T cells [4]): 1.06 and 1.04 (2×) and 0.92 and 1.05 (2×) and 0.98 and 0.82; Growth rate [GR] (HEK293T cells [5]): 1.15 and 0.31 and 1.59 and 1.75 and 1.08 and 0.52 and 0.68 and 0.76 and 0.64 and 0.98; Apoptosis induction [AI] (HEK293T cells [6]): -0.98 and -0.31 and -0.46 and 0.85 and 0.74 and 1.53"
